Test results as given in patent US20080207563A1, “METHOD FOR INHIBITING PROLIFERATION OF TUMOR CELLS” (priority 2007, published 2008).

Assays:
[1] = tested on: HT-29 colorectal cancer cells; assay: Cell viability (MTT) assay, single agents and combinations with erlotinib; assay type: cell-based, human; conditions: for combination effect of the two drugs: erlotinib in the presence of low doses of MEK inhibitor, HT-29, simultaneous or sequential
Procedure: (§1) Cell respiration, as an indicator of cell viability, is measured by the reduction of 3-(4,5-Dimethylthiazol-2-yl)-2,5-diphenyltetrazolium bromide (MTT) to formazan. HT-29 cells are maintained in McCoy's 5a medium (modified) containing 10% fetal bovine serum and are seeded to 96-well microtiter dishes at 2,000 cells/well in a 100 μl volume while MDA-MB-468 cells are maintained in Dulbecco's modified Eagle's medium containing 10% fetal bovine serum and are seeded to 96-well microtiter dishes at 4,000 cells/well in a volume 100 μl. On the following day, the cells are exposed to compounds in an additional 100 μl at the indicated concentrations and cultured for 5 days. After the addition of 50 μl/well of a 5 mg/ml MTT stock in Dulbecco's phosphate-buffered saline (PBS), the cells are incubated for an additional 2.5 hours at 37° C. Thereafter, the medium is removed and 50 μl of 100% ethanol is added to each well to dissolve the formazan crystals. The conversion of MTT into formazan by viable cells is assessed by a microplate reader at 570 nm. The results are presented as a percentage of the viability of untreated cells (control), which are regarded as 100% viable.
(§2) Dose-response interactions (antagonism, additive, and synergism) of two drugs are expressed as the Fa-Cl (the fraction affected by dose-the combination index) plot using the method of Chou and Talalay described in Advances in Enzyme Regulation, Volume 22, pp. 27-55 (1984) processed by the computer software Calcusyn (BIOSOFT, Cambridge, UK). This program provides objective computerized evaluation procedures. For mutually non-exclusive drugs that have totally independent modes of action, Cl<1, =1, and >1 indicates synergism, additive effect, and antagonism, respectively. The data are supported by classic isobolograms made by the same program. The isobolograms can be generated at different effect levels, e.g., ED50, ED70 and ED90. When it is generated at ED50, if the combination data points for Fa=0.5 falls on the diagonal, an additive effect is indicated; if it falls on the lower left, synergism is indicated; and if it falls on the upper right, antagonism is indicated. If a single drug is not very effective, and an ED50 can not be achieved, the results Fa-Cl or Isobologram can not be provided. In this case, the results are shown as classic dose-effect relationship charts.

[2] = tested on: MDA-MB-468 breast cancer cells; assay: as above; assay type: cell-based, human; conditions: for growth suppression / growth inhibitory effect: single agent treatment, in vitro, MDA-MB-468
Procedure: as §1, §2

EC50 ([1]; Homo sapiens, single agent, HT-29, ED50 can not be reached) | SMILES | combination effect of the two drugs [1] | combination index (Cl) values, Isobolograms ([2]; combination with erlotinib, ED50, ED75, ED90, all three treatment schedules, CalcuSyn) | combination index (Cl), Fa-Cl plot ([2]; combination with erlotinib, Fa >40%, simultaneous or sequential addition, MTT on day 5, CalcuSyn) | combination effect of the two drugs ([2]; combination with erlotinib, MDA-MB-468, simultaneous or sequential) | growth suppression / growth inhibitory effect [2] | sensitivity of the cells to single agent treatment ([1]; single agent, HT-29 (braf mutation))
 | C[C@@H](c1ccccc1)[C@@H](C(=O)Nc1ccc(I)cc1F)N1C(=O)N[C@H](c2ccc(OCCO)cc2)C1=O [Example 48, (2S,3S)—N-(2-Fluoro-4-iodo-phenyl)-2-{(R)-4-[4-(2-hydroxy-ethoxy)-phenyl]-2,5-dioxo-imidazolidin-1-yl}-3-phenyl-butyramide] | synergistic effects |  |  |  |  | 
 | C[C@@H](c1ccccc1)[C@@H](C(=O)Nc1ccc(I)cc1F)N1C(=O)N[C@H](c2ccc(OC[C@H](O)CO)cc2)C1=O [Example 56, (2S,3S)-2-{(R)-4-[4-((R)-2,3-Dihydroxy-propoxy)-phenyl]-2,5-dioxo-imidazolidin-1-yl}-N-(2-fluoro-4-iodo-phenyl)-3-phenyl-butyramide] | synergistic effects | < 0.5 | < 1 | synergism | significantly less growth inhibitory effect | 
 | C[C@@H](c1ccccc1)[C@@H](C(=O)Nc1ccc(I)cc1Cl)N1C(=O)N[C@H](c2ccc(OC[C@H](O)CO)cc2)C1=O [Example 114, (2S,3S)—N-(2-Chloro-4-iodo-phenyl)-2-{(R)-4-[4-((R)-2,3-dihydroxy-propoxy)-phenyl]-2,5-dioxo-imidazolidin-1-yl}-3-phenyl-butyramide] | synergistic effects |  |  |  |  | 
> 30 µM | C#Cc1cccc(Nc2ncnc3cc(OCCOC)c(OCCOC)cc23)c1 [erlotinib, N-(3-ethynylphenyl)-6,7-bis(2-methoxyethoxy)-4-quinazolinamine, reference compound] |  |  |  |  | significant growth suppression | very resistant
